According to patent US20090088380A1, “GHRH ANALOGS AND THERAPEUTIC USES THEREOF” (priority 2007, published 2009):
pIC50: −log10 of the molar value. Read-outs that look alike come from different tables or passages of the source. Non-standard residues stand in square brackets, D forms with d. Residues, ends and D or L forms follow the SMILES beside them. No end group written: not given here.

How the values were obtained:
[1] = In vitro proteolysis assay in rat serum; format: in vitro ADME; conditions: for Relative resistance to proteolysis in vitro: compared to hGHRH(1-29)-NH2; for Residual concentration (% of initial concentration): incubation 0 min
Procedure: Proteolysis was stopped by adding 800 μl of ice-cold stop buffer (potassium-phosphate buffer, acidified to pH 0.8 with trifluoroacetic acid (TFA) and boiling 5 min (rat serum only). After centrifugation (12000 g, 5 min, 4° C.) (rat serum only), serum-peptide mixtures were passed through a conditioned Sep-Pak C-18 cartridge to extract native GHRH or a GHRH analog residual concentrations from serum proteins. The native GHRH or the analog was eluted in 2 ml of 50% acetonitrile-0.01% TFA/50% 0.01% aqueous TFA. 200 μl of extracted peptide, representing 1 μg of GHRH or analog at time 0, was quantified by analytical HPLC, using one μ-Bondapak C18 column (10 μm particle size, 0.39×15 cm) (rat serum) or two C18 columns in series (human serum and plasma) and a binary solvent system composed of NaClO4 0.01 M, pH 2.5 and acetonitrile. A linear gradient from 30 to 60% acetonitrile over 45 min (rat serum) or 30 to 50% (human serum and plasma) was used. Elution of intact peptide was monitored at 214 nm and residual concentration determined by assessment of peak surface areas.

[2] = molecular target: T1, hGHRH(1-44)-NH2 binding sites in rat anterior pituitary (Rattus norvegicus, UniProt Q02644); experiment: Relative binding affinity in rat anterior pituitary preparations, [125I-Tyr10]hGHRH(1-44)-NH2 radioligand; conditions: values compared to hGHRH(1-29)-NH2
T1 construct: from tissue; host or cells: anterior pituitary of 2-month old male Sprague Dawley rats
T1 sequence (Q02644 23-423 isoform Q02644-2 limits assumed): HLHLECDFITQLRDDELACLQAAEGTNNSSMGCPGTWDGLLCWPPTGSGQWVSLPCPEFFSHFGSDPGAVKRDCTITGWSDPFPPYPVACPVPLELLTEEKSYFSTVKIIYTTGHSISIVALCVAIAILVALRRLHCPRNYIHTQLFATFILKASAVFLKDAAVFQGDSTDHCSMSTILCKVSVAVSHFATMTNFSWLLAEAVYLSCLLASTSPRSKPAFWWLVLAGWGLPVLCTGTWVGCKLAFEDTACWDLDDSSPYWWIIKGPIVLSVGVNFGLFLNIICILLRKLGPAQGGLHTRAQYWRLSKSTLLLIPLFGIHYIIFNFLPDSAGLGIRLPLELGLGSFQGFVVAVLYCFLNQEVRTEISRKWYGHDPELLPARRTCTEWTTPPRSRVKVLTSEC
From the text: Initial selection of a candidate from the original 14 polysubstituted GHRH analogs described in the U.S. Pat. No. 5,854,216 was based upon in vitro data on receptor affinity in 2-month old male Sprague Dawley rat anterior pituitary preparations. The embodiments are based on the affinity of selected GHRH analogs for the human GHRH receptor (hGHRH-R) in baby hamster kidney (BHK) cells transfected with hGHRH-R, and on resistance to proteolysis in rat serum, human plasma or human serum. More precisely, the preferred drug candidates were selected, as compared to hGHRH(1-29)-NH2, for: i-their increased relative binding affinity to hGHRH(1-44)-NH2 binding sites in rat anterior pituitary in vitro as well as to hGHRH-R in BHK-expressing cells in vitro; and ii-their relative resistance to proteolysis in vitro.

[3] = molecular target: T2, human GHRH receptor (Homo sapiens, UniProt Q02643); experiment: 125I-GHRH competitive binding assay in BHK cell membrane preparations; conditions: in comparison with hGHRH(1-29)NH2; ratio IC50 hGHRH(1-29)-NH2/IC50 analog
T2 construct: expressed in transfected cells; host or cells: BHK (baby hamster kidney) 570 cells, membrane preparations
T2 sequence (Q02643 23-423): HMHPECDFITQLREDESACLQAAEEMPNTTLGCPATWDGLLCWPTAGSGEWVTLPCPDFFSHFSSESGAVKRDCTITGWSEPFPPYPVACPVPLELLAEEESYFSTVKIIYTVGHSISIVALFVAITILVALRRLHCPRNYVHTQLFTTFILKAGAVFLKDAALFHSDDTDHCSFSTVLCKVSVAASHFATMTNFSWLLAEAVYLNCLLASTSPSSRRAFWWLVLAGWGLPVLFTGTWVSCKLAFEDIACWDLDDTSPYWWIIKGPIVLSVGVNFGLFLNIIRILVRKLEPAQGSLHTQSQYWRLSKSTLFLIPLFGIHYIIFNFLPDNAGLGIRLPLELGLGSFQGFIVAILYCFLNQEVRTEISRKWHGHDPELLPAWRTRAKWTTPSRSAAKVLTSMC
Procedure: Non specific binding was determined in presence of 1 μM hGHRH(1-29)NH2. Incubation was carried out at equilibrium (23° C., 60 min) and stopped by centrifugation (12,000 g, 5 min, at 4° C.). The radioactivity content in pellets was determined by gamma counting. The affinity of hGHRH(1-29) NH2 was tested in each experiment to assess the validity of the assay and determine the relative affinity of the analogs.
Values represent the mean±SEM of 3 experiments performed in triplicate for the analogs and the mean±SEM of 2 experiments performed in triplicate for hGHRH(1-44) NH2.
For the binding assay results presented in Tables 8 to 11, values represent the mean±SEM of 8 independent experiments performed in triplicate for the analogs and the mean±SEM of 4 experiments performed in triplicate for hGHRH(1-29)NH2. […] The relative affinity was obtained by taking the ratio IC50 of hGHRH (1-29)-NH2/IC50 analog.

[4] = molecular target: rat GHRH receptor (rat) (UniProt Q02644); experiment: competition with [125I-Tyr10]hGHRH(1-44)-NH2, rat anterior pituitary membrane preparations
[5] = molecular target: human GHRH receptor (human) (UniProt Q02643); experiment: competition with [125I-Tyr10]hGHRH(1-44)NH2, BHK cell membrane preparations expressing the human GHRH receptor
[6] = molecular target: human GHRH receptor (human) (UniProt Q02643); experiment: as above; remark: listed apart in the source

Row | Compound | Relative resistance to proteolysis in vitro [1] | Residual concentration (% of initial concentration) [1] | Relative binding affinity in rat anterior pituitary [2] | Relative binding affinity (R1) in hGHRH-R BHK-expressing cells [3] | Relative binding affinity in rat anterior pituitary (relative to hGHRH(1-29)-NH2) [4] | pIC50 [5] | pIC50 [6] | Relative binding affinity (R1) in comparison with hGHRH(1-29)NH2 ([6]; scale: ratio IC50 of hGHRH)
1 | CC[C@H](C)[C@H](NC(=O)[C@H](C)NC(=O)[C@H](CC(=O)O)NC(=O)[C@@H](C)NC(=O)[C@@H](N)Cc1ccc(O)cc1)C(=O)N[C@@H](Cc1ccccc1)C(=O)N[C@H](C(=O)N[C@@H](C)C(=O)N[C@@H](CO)C(=O)N[C@@H](Cc1ccc(O)cc1)C(=O)N[C@@H](CCCNC(=N)N)C(=O)N[C@@H](CCCCN)C(=O)N[C@H](C(=O)N[C@@H](CC(C)C)C(=O)N[C@@H](C)C(=O)N[C@@H](CCC(N)=O)C(=O)N[C@@H](CC(C)C)C(=O)N[C@@H](CO)C(=O)N[C@@H](C)C(=O)N[C@@H](CCCNC(=N)N)C(=O)N[C@@H](CCCCN)C(=O)N[C@@H](CCCCN)C(=O)N[C@@H](CC(C)C)C(=O)N[C@@H](CCC(N)=O)C(=O)N[C@@H](CC(=O)O)C(=O)N[C@H](C(=O)N[C@@H](CCSC)C(=O)N[C@@H](CO)C(=O)N[C@@H](CCCNC(=N)N)C(N)=O)[C@@H](C)CC)C(C)C)[C@@H](C)O [GHRH analog #1, [D-Ala^2, Ala^8, Ala^15, Lys^22] hGHRH(1-29)-NH2] (H-Y[dA]DAIFTASYRKVLAQLSARKKLQDIMSR-NH2; N-terminus assumed) | 1.87 | 100 ± 0 % of initial concentration | 13.33 ± 0.31 | 499 ± 234 | – | – | – | –
2 | [D-Ala2, D-Tyr10, D-Ala15, Lys22] hGHRH(1-29)-NH2 (peptide) | – | – | – | – | 1.04 | 11.92 | 11.22 | 939

Second part, the compound after the results:

Row | Relative resistance to proteolysis in vitro [1] | Residual concentration (% of initial concentration) [1] | Relative binding affinity in rat anterior pituitary [2] | Relative binding affinity (R1) in hGHRH-R BHK-expressing cells [3] | Relative binding affinity in rat anterior pituitary (relative to hGHRH(1-29)-NH2) [4] | pIC50 [5] | pIC50 [6] | Relative binding affinity (R1) in comparison with hGHRH(1-29)NH2 ([6]; scale: ratio IC50 of hGHRH) | Compound
3 | 2.25 | 100 ± 0 % of initial concentration | 4.90 ± 2.70 | 239 ± 55 | – | – | – | – | CC[C@H](C)[C@H](NC(=O)[C@H](C)NC(=O)[C@H](CC(=O)O)NC(=O)[C@@H](C)NC(=O)[C@@H](N)Cc1ccc(O)cc1)C(=O)N[C@@H](Cc1ccccc1)C(=O)N[C@H](C(=O)N[C@@H](CC(N)=O)C(=O)N[C@@H](CO)C(=O)N[C@H](Cc1ccc(O)cc1)C(=O)N[C@@H](CCCNC(=N)N)C(=O)N[C@@H](CCCCN)C(=O)N[C@H](C(=O)N[C@@H](CC(C)C)C(=O)NCC(=O)N[C@@H](CCC(N)=O)C(=O)N[C@@H](CC(C)C)C(=O)N[C@@H](CO)C(=O)N[C@@H](C)C(=O)N[C@@H](CCCNC(=N)N)C(=O)N[C@@H](CCCCN)C(=O)N[C@@H](CCCCN)C(=O)N[C@@H](CC(C)C)C(=O)N[C@@H](CCC(N)=O)C(=O)N[C@@H](CC(=O)O)C(=O)N[C@H](C(=O)N[C@@H](CCSC)C(=O)N[C@@H](CO)C(=O)N[C@@H](CCCNC(=N)N)C(N)=O)[C@@H](C)CC)C(C)C)[C@@H](C)O [GHRH analog #3, [D-Ala^2, D-Tyr^10, Lys^22] hGHRH(1-29)-NH2] (H-Y[dA]DAIFTNS[dY]RKVLGQLSARKKLQDIMSR-NH2; N-terminus assumed)
4 | 6.06 | 100 ± 0 % of initial concentration | 5.00 ± 0.91 | 0.05 ± 0.01 | – | – | – | – | CC[C@H](C)[C@H](NC(=O)[C@H](C)NC(=O)[C@H](CC(=O)O)NC(=O)[C@@H](C)NC(=O)[C@@H](N)Cc1ccc(O)cc1)C(=O)N[C@@H](Cc1ccccc1)C(=O)N[C@H](C(=O)N[C@@H](C)C(=O)N[C@@H](CO)C(=O)N[C@H](Cc1ccc(O)cc1)C(=O)N[C@@H](CCCNC(=N)N)C(=O)N[C@@H](CCCCN)C(=O)N[C@H](C(=O)N[C@@H](CC(C)C)C(=O)N[C@@H](C)C(=O)N[C@@H](CCC(N)=O)C(=O)N[C@@H](CC(C)C)C(=O)N[C@@H](CO)C(=O)N[C@@H](C)C(=O)N[C@@H](CCCNC(=N)N)C(=O)N[C@H](CCCCN)C(=O)N[C@@H](CCCCN)C(=O)N[C@@H](CC(C)C)C(=O)N[C@@H](CCC(N)=O)C(=O)N[C@@H](CC(=O)O)C(=O)N[C@H](C(=O)N[C@@H](CCSC)C(=O)N[C@@H](CO)C(=O)N[C@@H](CCCNC(=N)N)C(N)=O)[C@@H](C)CC)C(C)C)[C@@H](C)O [GHRH analog #4, [D-Ala^2, Ala^8, D-Tyr^10, Ala^15, D-Lys^21, Lys^22] hGHRH(1-29)-NH2] (H-Y[dA]DAIFTAS[dY]RKVLAQLSAR[dK]KLQDIMSR-NH2; N-terminus assumed)
5 | 1.81 | 100 ± 0 % of initial concentration | 7.74 ± 3.49 | 3.70 ± 0.52 | – | – | – | – | YADAIFTAAYRKVLAQLSARKALQDIMSR-NH2 [GHRH analog #2, [Ala^8, Ala^9, Ala^15, Ala^22] hGHRH(1-29)-NH2]
